Measurements: PMC4303209, “A novel phosphatidylinositol 3-kinase (PI3K) inhibitor directs a potent FOXO-dependent, p53-independent cell cycle arrest phenotype characterized by the differential induction of a subset of FOXO-regulated genes” (Breast Cancer Research : BCR, 2014)

Test system: MCF-7 breast cancer cells
Assay: Microarray gene expression analysis (Agilent whole human genome 4 x 44K; compound vs DMSO, LIMMA log2 fold change)
Type: cell-based
[1] = MCF-7, 100nM, six hours, 1.5-fold expression change threshold

With `Oc1cccc(-c2nc(N3CCOCC3)c3oc4ncccc4c3n2)c1` [PI-103] the “ESCO1 log2FC” value (Gene 114799, cell cycle genes) was 0.45, the “UHRF2 log2FC” value (Gene 115426, cell cycle genes) was 0.51 and the “KLHDC3 log2FC” value (Gene 116138, cell cycle genes) was 0.0341. The “CNTROB log2FC” value (Gene 116840, cell cycle genes) was 0.23, the “NEDD1 log2FC” value (Gene 121441, cell cycle genes) was 0.35 and the “HEXIM2 log2FC” value (Gene 124790, cell cycle genes) was 0.87. For the same compound, the “ARL8A log2FC” value (Gene 127829, cell cycle genes) was 0.56, the “UHMK1 log2FC” value (Gene 127933, cell cycle genes) was -0.17 and the “IQGAP3 log2FC” value (Gene 128239, cell cycle genes) was 0.35. For the same compound, the “NUP35 log2FC” value (Gene 129401, cell cycle genes) was -0.36, the “MITD1 log2FC” value (Gene 129531, cell cycle genes) was 0.71 and the “NUDT16 log2FC” value (Gene 131870, cell cycle genes) was -0.23. For the same compound, the “ZFP42 log2FC” value (Gene 132625, cell cycle genes) was -0.0323, the “JMY log2FC” value (Gene 133746, cell cycle genes) was 1.01 and the “HUS1B log2FC” value (Gene 135458, cell cycle genes) was -0.84. The “NEK7 log2FC” value (Gene 140609, cell cycle genes) was 0.11, the “CTCFL log2FC” value (Gene 140690, cell cycle genes) was -0.0211 and the “PSMA8 log2FC” value (Gene 143471, cell cycle genes) was 0.0738. The “SESN3 log2FC” value (Gene 143686, cell cycle genes) was 0.12, the “PIWIL4 log2FC” value (Gene 143689, cell cycle genes) was 0.27 and the “E2F7 log2FC” value (Gene 144455, cell cycle genes) was -0.38. For the same compound, the “RAD9B log2FC” value (Gene 144715, cell cycle genes) was -0.00292, the “KCTD11 log2FC” value (Gene 147040, cell cycle genes) was 0.28 and the “PYHIN1 log2FC” value (Gene 149628, cell cycle genes) was -0.0139. For the same compound, the “PPP1R1C log2FC” value (Gene 151242, cell cycle genes) was 0.09, the “SGOL2 log2FC” value (Gene 151246, cell cycle genes) was 0.87 and the “SGOL1 log2FC” value (Gene 151648, cell cycle genes) was 0.42. The “ROPN1B log2FC” value (Gene 152015, cell cycle genes) was 0.0015, the “DAB2IP log2FC” value (Gene 153090, cell cycle genes) was 0.03 and the “CDCA2 log2FC” value (Gene 157313, cell cycle genes) was 0.46. The “ESCO2 log2FC” value (Gene 157570, cell cycle genes) was 0.48, the “SASS6 log2FC” value (Gene 163786, cell cycle genes) was 0.49 and the “WBP2NL log2FC” value (Gene 164684, cell cycle genes) was -0.0843. The “THAP5 log2FC” value (Gene 168451, cell cycle genes) was 0.10, the “FLCN log2FC” value (Gene 201163, cell cycle genes) was 0.78 and the “STRA13 log2FC” value (Gene 201254, cell cycle genes) was -0.39. The “TUBB log2FC” value (Gene 203068, cell cycle genes) was -0.55, the “REEP3 log2FC” value (Gene 221035, cell cycle genes) was -0.29 and the “C6orf89 log2FC” value (Gene 221477, cell cycle genes) was -0.38. The “SPDYA log2FC” value (Gene 245711, cell cycle genes) was -0.01, the “CDC26 log2FC” value (Gene 246184, cell cycle genes) was -0.67 and the “ASPM log2FC” value (Gene 259266, cell cycle genes) was 1.14. For the same compound, the “SLC39A5 log2FC” value (Gene 283375, cell cycle genes) was 0.05, the “GAS2L3 log2FC” value (Gene 283431, cell cycle genes) was 0.53 and the “NSMCE2 log2FC” value (Gene 286053, cell cycle genes) was 0.84. For the same compound, the “LIN9 log2FC” value (Gene 286826, cell cycle genes) was 1.23, the “TMPRSS11A log2FC” value (Gene 339967, cell cycle genes) was 0.0013 and the “NUP43 log2FC” value (Gene 348995, cell cycle genes) was 0.24. For the same compound, the “APITD1 log2FC” value (Gene 378708, cell cycle genes) was 0.07, the “SETD8 log2FC” value (Gene 387893, cell cycle genes) was -0.04 and the “PIM3 log2FC” value (Gene 415116, cell cycle genes) was 0.64. For the same compound, the “PIWIL3 log2FC” value (Gene 440822, cell cycle genes) was -0.09, the “expression of FOXO-dependent apoptosis genes including TNFSF10, BCL211 and FASLG (array)” value (MCF-7) was “did not significantly change” and the “number of differentially expressed genes” value [1] was “more than 2,000”. For the same compound, the “number of induced (upregulated) genes” value [1] was 1,293, the “number of repressed (downregulated) genes” value [1] was 886 and the “CCND1, SPRY2 and MMP9 expression (array)” value (MCF-7, FOXO target genes) was “significantly downregulated”. For the same compound, the “expression of CCNG2, KLHL24, DDIT3, CITED2 and RICTOR (array)” value (MCF-7, FOXO target genes) was “significantly upregulated”, the “MAD1L1 log2FC” value (cell cycle genes) was -0.14 and the “ACSL5 log2FC” value (gene ACSL5 (51703), apoptosis genes) was 0.058. The log2FC (gene ACTR1A (Gene 10121), cell cycle genes) was -0.13, the “ADAMTS20 log2FC” value (gene ADAMTS20 (80070), apoptosis genes) was -0.005 and the “ADIPOQ log2FC” value (gene ADIPOQ (9370), apoptosis genes) was -0.040. The “ADRA1A log2FC” value (gene ADRA1A (148), apoptosis genes) was 0.010, the “AGTR2 log2FC” value (gene AGTR2 (186), apoptosis genes) was 0.044 and the “log2FC AKAP8” value (gene AKAP8 (Gene 10270), cell cycle genes) was -0.20. The “ALB log2FC” value (gene ALB (213), apoptosis genes) was -0.044, the “ALOX12 log2FC” value (gene ALOX12 (239), apoptosis genes) was -0.144 and the “ALX3 log2FC” value (gene ALX3 (257), apoptosis genes) was 0.013. The “ALX4 log2FC” value (gene ALX4 (60529), apoptosis genes) was -0.036, the log2FC (gene ANAPC13 (Gene 25847), cell cycle genes) was -0.30 and the “ANKRD13C log2FC” value (gene ANKRD13C (81573), apoptosis genes) was -0.007. The “APBB1 log2FC” value (gene APBB1 (322), apoptosis genes) was 0.356, the “APOH log2FC” value (gene APOH (350), apoptosis genes) was 0.052 and the “AQP1 log2FC” value (gene AQP1 (358), apoptosis genes) was -0.011. The “ARHGAP10 log2FC” value (gene ARHGAP10 (79658), apoptosis genes) was -0.061, the “ARHGEF6 log2FC” value (gene ARHGEF6 (9459), apoptosis genes) was -0.152 and the “ARHGEF16 log2FC” value (gene ARHGEF16 (27237), apoptosis genes) was 0.275. The “ARHGEF18 log2FC” value (gene ARHGEF18 (23370), apoptosis genes) was -0.106, the “ATOH1 log2FC” value (gene ATOH1 (474), apoptosis genes) was -0.042 and the “ATPIF1 log2FC” value (gene ATPIF1 (93974), apoptosis genes) was 0.131. For the same compound, the log2FC (gene ATR (Gene 545), cell cycle genes) was 0.11, the log2FC (gene BAD (Gene 572), cell cycle genes) was 0.53 and the “BCL2L10 log2FC” value (gene BCL2L10 (10017), apoptosis genes) was -0.066. For the same compound, the “BDKRB2 log2FC” value (gene BDKRB2 (624), apoptosis genes) was -0.025, the “BIRC2 log2FC” value (gene BIRC2 (329), apoptosis genes) was -0.339 and the “BIRC8 log2FC” value (gene BIRC8 (112401), apoptosis genes) was -0.038. The “BMP2 log2FC” value (gene BMP2 (650), apoptosis genes) was -0.233, the log2FC (gene BMP4 (Gene 652), cell cycle genes) was 0.22 and the “BMP5 log2FC” value (gene BMP5 (653), apoptosis genes) was -0.019. For the same compound, the “BOK log2FC” value (gene BOK (666), apoptosis genes) was 0.093, the log2FC (gene BRE (Gene 9577), cell cycle genes) was -0.21 and the “BTK log2FC” value (gene BTK (695), apoptosis genes) was 0.086. The log2FC (gene BUB1B (Gene 701), cell cycle genes) was 0.15, the “C1QBP log2FC” value (gene C1QBP (708), apoptosis genes) was -0.112 and the “C3orf38 log2FC” value (gene C3orf38 (285237), apoptosis genes) was -0.159. The log2FC (gene CAMK2B (Gene 816), cell cycle genes) was 0.01, the “CAPN3 log2FC” value (gene CAPN3 (825), apoptosis genes) was -0.026 and the “log2FC CAPN3” value (gene CAPN3 (Gene 825), cell cycle genes) was -0.0259. For the same compound, the “CARD9 log2FC” value (gene CARD9 (64170), apoptosis genes) was 0.028, the “CARD14 log2FC” value (gene CARD14 (79092), apoptosis genes) was 0.056 and the log2FC (gene CASP3 (Gene 836), cell cycle genes) was 0.31. The “CASP10 log2FC” value (gene CASP10 (843), apoptosis genes) was 0.088, the “CASP12 log2FC” value (gene CASP12 (120329), apoptosis genes) was 0.062 and the “CCK log2FC” value (gene CCK (885), apoptosis genes) was -0.021. For the same compound, the “CCL19 log2FC” value (gene CCL19 (6363), apoptosis genes) was 0.205, the log2FC (gene CCNB2 (Gene 9133), cell cycle genes) was 0.20 and the log2FC (gene CCNH (Gene 902), cell cycle genes) was 0.14. For the same compound, the log2FC (gene CCNT2 (Gene 905), cell cycle genes) was 0.14, the “CD38 log2FC” value (gene CD38 (952), apoptosis genes) was 0.042 and the “CD40LG log2FC” value (gene CD40LG (959), apoptosis genes) was -0.017. For the same compound, the “CD248 log2FC” value (gene CD248 (57124), apoptosis genes) was 0.046, the log2FC (gene CDC73 (Gene 79577), cell cycle genes) was 0.33 and the “CDH1 log2FC” value (gene CDH1 (999), apoptosis genes) was 0.556. For the same compound, the “log2FC CDH13” value (gene CDH13 (Gene 1012), cell cycle genes) was 0.0463, the “log2FC CDK2AP1” value (gene CDK2AP1 (Gene 8099), cell cycle genes) was -0.15 and the “CDK5 log2FC” value (gene CDK5 (1020), apoptosis genes) was 0.184. For the same compound, the “log2FC CDK5RAP1” value (gene CDK5RAP1 (Gene 51654), cell cycle genes) was 0.0451, the “log2FC CDKN2B” value (gene CDKN2B (Gene 1030), cell cycle genes) was -0.0758 and the log2FC (gene CENPJ (Gene 55835), cell cycle genes) was 0.11. The log2FC (gene CENPK (Gene 64105), cell cycle genes) was 0.33, the log2FC (gene CETN3 (Gene 1070), cell cycle genes) was 0.33 and the log2FC (gene CHEK2 (Gene 11200), cell cycle genes) was 0.11. For the same compound, the “CHIA log2FC” value (gene CHIA (27159), apoptosis genes) was -0.110, the “CIDEA log2FC” value (gene CIDEA (1149), apoptosis genes) was -0.071 and the “CLC log2FC” value (gene CLC (1178), apoptosis genes) was -0.00153. For the same compound, the “CLEC5A log2FC” value (gene CLEC5A (23601), apoptosis genes) was -0.040, the “CLSPN log2FC” value (gene CLSPN (63967), apoptosis genes) was -0.114 and the “CNTFR log2FC” value (gene CNTFR (1271), apoptosis genes) was -0.050. The “COL2A1 log2FC” value (gene COL2A1 (1280), apoptosis genes) was -0.00236, the “COL4A3 log2FC” value (gene COL4A3 (1285), apoptosis genes) was 0.543 and the “COMP log2FC” value (gene COMP (1311), apoptosis genes) was -0.113. It also gave a log2FC (gene COPS5 (Gene 10987), cell cycle genes) of 0.16, a log2FC (gene CRLF3 (Gene 51379), cell cycle genes) of 0.14 and a log2FC (gene CSNK2B (Gene 1460), cell cycle genes) of -0.06. The “CST3 log2FC” value (gene CST3 (1471), apoptosis genes) was 0.253, the “CTLA4 log2FC” value (gene CTLA4 (1493), apoptosis genes) was 0.009 and the “CXCR4 log2FC” value (gene CXCR4 (7852), apoptosis genes) was 0.375. For the same compound, the “CYR61 log2FC” value (gene CYR61 (3491), apoptosis genes) was -0.258, the “DAPK2 log2FC” value (gene DAPK2 (23604), apoptosis genes) was -1.207 and the “DAXX log2FC” value (gene DAXX (1616), apoptosis genes) was -0.040. The “log2FC DAXX” value (gene DAXX (Gene 1616), cell cycle genes) was -0.04, the log2FC (gene DCLRE1B (Gene 64858), cell cycle genes) was -0.35 and the log2FC (gene DDX11 (Gene 1663), cell cycle genes) was -0.27. For the same compound, the “DDX47 log2FC” value (gene DDX47 (51202), apoptosis genes) was -0.196, the “DEDD2 log2FC” value (gene DEDD2 (162989), apoptosis genes) was 0.214 and the “DFFB log2FC” value (gene DFFB (1677), apoptosis genes) was -0.041. The log2FC (gene DIAPH2 (Gene 1730), cell cycle genes) was 0.38, the “log2FC DIRAS3” value (gene DIRAS3 (Gene 9077), cell cycle genes) was 0.0278 and the “DMPK log2FC” value (gene DMPK (1760), apoptosis genes) was 0.273. The “DNM2 log2FC” value (gene DNM2 (1785), apoptosis genes) was 0.271, the “DPF1 log2FC” value (gene DPF1 (8193), apoptosis genes) was -0.250 and the “log2FC ECD” value (gene ECD (Gene 11319), cell cycle genes) was -0.23. The “EGR3 log2FC” value (gene EGR3 (1960), apoptosis genes) was 0.187, the “EGR4 log2FC” value (gene EGR4 (1961), apoptosis genes) was 0.222 and the “ELMO1 log2FC” value (gene ELMO1 (9844), apoptosis genes) was 0.209. For the same compound, the “EPB41L3 log2FC” value (gene EPB41L3 (23136), apoptosis genes) was 0.039.
